This is an account of results in patent US12102644B2, “Compounds and methods of promoting myelination” (Case Western Reserve University, priority 2019, dated 2024).

The subject of series [1] is mouse epiblast stem cell-derived OPCs. Kind of series: In vitro OPC differentiation assay (percentage of MBP+ oligodendrocytes, high-content imaging). The series is classed as cell-based. Conditions: 72 h, differentiation-permissive conditions. Here is the method: To rigorously assess effects of small molecule and genetic treatments on OPCs, all treatments were assayed in two batches of epiblast stem cell-derived OPCs, and key results were confirmed using mouse primary OPCs. OPCs were generated from two separate EpiSC lines, EpiSC5 (giving rise to OPC-5 OPCs) and 12901 (giving rise to OPC-1 OPCs). EpiSC-derived OPCs were obtained using in vitro differentiation protocols and culture conditions described previously. To ensure uniformity throughout all in vitro screening experiments, EpiSC-derived OPCs were sorted to purity by fluorescence activated cell sorting at passage five with conjugated CD 140a-APC (eBioscience, 17-1401; 1:80) and NG2-AF488 (Millipore, AB[…]; 1:100) antibodies. Sorted batches of OPCs were expanded and frozen down in aliquots. OPCs were thawed into growth conditions for one passage before use in further assays. Cultures were regularly tested and shown to be mycoplasma free. EpiSC-derived OPCs were grown and expanded in poly-ornithine (PO) and laminin-coated flasks with growth medium (DMEM/F12 supplemented with N2-MAX (R&D Systems), B-27 (ThermoFisher), GlutaMax (Gibco), FGF2 ([…], R&D systems, 233-FB-025) and PDGF-AA ([…], R&D systems, 233-AA-050) before harvesting for plating. The cells were seeded onto poly-D-[…]-well CellCarrier plates (PerkinElmer) coated with laminin (Sigma, L2020; 15 μg/ml) using multi-channel pipet. For the experiment, 800,000 cells/mL stock in differentiation medium (DMEM/F12 supplemented with N2-MAX and B-27) was prepared and stored on ice for 2 h. Then, 40,000 cells were seeded per well in differentiation medium and allowed to attach for 30 min before addition of drug. For dose-response testing of all molecules except sterols, a 1000× compound stock in dimethyl sulphoxide (DMSO) was added to assay plates with 0.1 μL solid pin multi-blot replicators (V & P Scientific; VP 409), resulting in a final primary screening concentration of 1×. Sterols were added to cells as an ethanol solution (0.2% final ethanol concentration). Positive control wells (ketoconazole, 2.5 μM) and DMSO vehicle controls were included in each assay plate. Cells were incubated under standard conditions (37° C., 5% CO2) for 3 days and fixed with 4% paraformaldehyde (PFA) in phosphate buffered saline (PBS) for 20 min. Fixed plates were washed with PBS (200 μL per well) twice, permeabilized with 0.1% Triton X-100 and blocked with 10% donkey serum (v/v) in PBS for 40 min. Then, cells were labelled with MBP antibodies (Abcam, ab7349; 1:200) for 16 h at 4° C. followed by detection with Alexa Fluor conjugated secondary antibodies (1:500) for 45 min. Nuclei were visualized by DAPI staining (Sigma; 1 μg/ml). During washing steps, PBS was added using a multi-channel pipet and aspiration was performed using Biotek EL406 washer dispenser (Biotek) equipped with a 96-well aspiration manifold. Plates were imaged on the Operetta High Content Imaging and Analysis system (PerkinElmer) and a set of 6 fields captured from each well resulting in an average of 1200 cells being scored per well. Analysis (PerkinElmer Harmony and Columbus software) began by identifying intact nuclei stained by DAPI; that is, those traced nuclei that were larger than 300 μm^2 in surface area. Each traced nucleus region was then expanded by 50% and cross-referenced with the […] (MBP) stain to identify oligodendrocyte nuclei, and from this the percentage of oligodendrocytes was calculated. In some experiments, the total process length of MBP^+ oligodendrocytes was calculated as previously described.

The test system of series [2] is sterol levels in OPCs (cholesterol biosynthesis pathway). Kind of series: GC/MS-based sterol profiling in OPCs. Conditions: 24 h treatment. The series is classed as cell-based, mouse.
For another series, the system named is estrogen receptor. Conditions: cited from earlier work.
The subject of series [3] is mouse brain sterol levels. Kind of series: Analysis of mouse brain sterol levels (GC/MS). The series is classed as in vivo. Conditions: ifenprodil 10 mg per kg, tamoxifen 2 mg per kg, daily, 3 days.
For series [4] the following is noted: mouse; cited from earlier work.
The subject of series [5] is human myelinating cortical spheroids. In words: MyRF+ oligodendrocytes in human myelinating cortical spheroids. The series is classed as cell-based. Conditions: spheroids treated 10 days from day 62, stained day 93.
Description: Spheroids at day 62 were treated with the indicated small molecules for 10 days and stained at day 93. Four spheroids were analyzed per treatment condition, and four fields per organoid were used in the quantitation. f) Representative images of spheroids. Nuclei are labeled with DAPI (blue), and oligodendrocytes are immunostained for MyRF (red). Scale bar, 100 μm.
Series [6] has as its system LPC-lesioned spinal cord. Kind of series: LPC focal demyelination of spinal cord, remyelination histology. The series is classed as in vivo, mouse. Conditions: ifenprodil 10 mg per kg or tamoxifen 2 mg per kg, daily i.p., 8 days from day 4 after lesion.
Series [7] relates to human induced pluripotent stem cell-derived cortical spheroids. In words: Sterol profiling in human iPSC-derived cortical spheroids. The series is classed as cell-based.
Series [8] deals with LPC-lesioned spinal cord. Conditions: previously established by the inventors; cited from earlier work.
A further series addresses T1, rat CYP51 (Rattus norvegicus, UniProt Q64654).
T1 sequence (Q64654 1-503): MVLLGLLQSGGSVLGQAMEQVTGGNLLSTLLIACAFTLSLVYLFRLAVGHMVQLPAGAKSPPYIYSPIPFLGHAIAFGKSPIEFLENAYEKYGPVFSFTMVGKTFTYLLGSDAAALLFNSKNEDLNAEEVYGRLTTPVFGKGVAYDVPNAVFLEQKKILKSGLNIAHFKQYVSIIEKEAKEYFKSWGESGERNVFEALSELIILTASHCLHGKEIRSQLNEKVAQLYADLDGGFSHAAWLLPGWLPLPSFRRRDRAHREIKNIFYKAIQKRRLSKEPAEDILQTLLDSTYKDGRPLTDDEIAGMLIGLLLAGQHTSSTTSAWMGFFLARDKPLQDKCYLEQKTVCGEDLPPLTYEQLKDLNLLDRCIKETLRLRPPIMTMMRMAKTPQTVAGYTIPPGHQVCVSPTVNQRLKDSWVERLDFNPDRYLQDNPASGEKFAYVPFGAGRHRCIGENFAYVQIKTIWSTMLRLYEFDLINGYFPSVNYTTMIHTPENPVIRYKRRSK
In words: biochemical.

For the molecule 4-hydroxytamoxifen, the “formation of MBP+ oligodendrocytes from OPCs” value in series [1] was “enhance the formation of oligodendrocytes with comparable potency”. The “accumulation of sterol intermediates in OPCs (enzyme inhibition in OPCs, e.g. EBP)” value in [2] is recorded as “inhibit EBP in OPCs”. Also, the “potency as estrogen receptor modulator relative to tamoxifen” value in the series with estrogen receptor is on record as 100 fold.
`CC(C(O)c1ccc(O)cc1)N1CCC(Cc2ccccc2)CC1` (centres unmarked) [ifenprodil, Ifenprodil]: the “8,9-unsaturated sterols in mouse CNS” value in series [3] is given as “induced significant accumulation of 8,9-unsaturated sterols in vivo in the CNS”. Moreover, the “blood brain barrier penetration” value in series [4] is given as “known to cross the mouse blood brain barrier”. In addition, the “formation of MyRF-positive human oligodendrocytes” value in [5] is listed as “enhanced the formation of myelin regulatory factor (MyRF)-positive human oligodendrocytes”. Further, in the series on LPC-lesioned spinal cord [6], the “remyelination of LPC lesion” value is given as “remyelination was widespread throughout the lesion”. Besides, the “8,9-unsaturated sterol accumulation in human cortical spheroids” value in series [7] was “led to 8,9-unsaturated sterol accumulation”.
Broadly, the IC50 is the concentration at which inhibition is half-maximal. Regarding `Clc1ccc(COC(Cn2ccnc2)c2ccc(Cl)cc2Cl)c(Cl)c1` (centres unmarked) [miconazole, Miconazole], the “remyelination in mouse models of demyelination (earlier work)” value with LPC-lesioned spinal cord [8] is “enhances remyelination in mouse models of demyelination”. For the same molecule, at rat CYP51, the IC50 is 300 to 700 nM. For the same molecule, in [7], the “8,9-unsaturated sterol accumulation in human cortical spheroids” value is “led to 8,9-unsaturated sterol accumulation”.
